Here are results for 5 compounds from patent publication US5552520A, “Therapeutic peptide derivatives” (Biomeasure, Inc., priority 1994, dated 1996).

The test system of test [1] is AR42J rat pancreas tumor cells. Kind of test: Antiproliferative assay on AR42J cells. The class given is cell-based. Particulars: Concentration 100 nM, AR42J Rat Pancreas Tumor Cells after 8 days. The method, then:
The purified somatostatin analogs described above were also tested for activity against rapidly proliferating cells.
^1 Concentration 100 nM, AR42J Rat Pancreas Tumor Cells after 8 days.

In test [2] the test system is AR42J rat pancreas tumor cells. The experiment in a line: Antiproliferative assay on AR42J cells. The class given is cell-based. Particulars: growth curves, concentration dependence.
A further test has as its target T1, somatostatin receptor (Rattus norvegicus, UniProt P30680).
T1 construct: SRIF-14 to rat AR42J pancreas membranes; endogenous in cells; host or cells: rat AR42J pancreatic cells (membrane preparation)
Kind of test: Somatostatin binding assay: in vitro inhibition of binding of [125I-Tyr11]SRIF-14 to rat AR42J pancreas membranes. Particulars: inhibition of [125I-Tyr11]SRIF-14 binding, read-out: IC50, in vitro binding affinity.

The subject of test [3] is stimulated growth hormone release. Kind of test: Growth Hormone (GH) Inhibition Assay in rats (D-Ala2-GRF stimulated GH). The class given is in vivo, male Sprague Dawley rats. Particulars: s.c., 25 μg/kg. How it is done:
Groups of five male Sprague Dawley rats (each having a weight between 250-300 g) were injected s.c. with a somatostatin derivative or saline. Thirty minutes prior to the selected post-drug time periods shown in table II (2 hours, 4 hours, 6 hours, 8 hours), rats were anesthetized with Nembutal i.p. (50 mg/kg). Fifteen minutes following anesthesia, an aliquot of blood was withdrawn by cardiac puncture over heparin to measure basal GH. Additionally, a s.c. injection of D-Ala^2 -GRF (10 μg/kg) was given. Fifteen minutes later, blood was withdrawn to quantitate the stimulated GH, which was measured in plasma using a radioimmunoassay supplied by NIADDKD. The percentage of GH inhibition was calculated from differences obtained between basal and stimulated GH values.
The efficacy of D-Phe-c[Cys-Tyr-D-Trp-Lys-Thr-Cys]-Nal-NH2 (SEQ ID NO. 113) (BIM-23060) in inhibiting growth hormone in rats is compared with other somatostatin derivatives (BIM-23167, BIM-23179, and BIM-23181) of the invention.
Additional experiments were conducted on D-Phe-c[Cys-Tyr-D-Trp-Lys-Abu-Cys]-Thr-NH2, (SEQ ID NO. 112) a somatostatin analog, and BIM-23190, BIM-23195 and BIM-23197, to determine the ED50 (i.e., the concentration of each compound required to inhibit fifty percent of growth hormone release after a specified time) of the respective compound. Experiments were conducted at a dose range of between 25 μg/kg and 0.25 μg/kg.

Numbered stars: 1 amine (or outer) side, 2 acyl side, 3 side chain; on linkers, the order of the positions; unused ones are H or OH. Bridge positions count the residues as written; N and C are the ends. Square brackets hold non-standard residues; d marks the D form. Peptide text beside a SMILES is read from it. * marks the point of attachment. X1 = O=C1O[C@H]([C@@H](O)CO)C(OCC(=O)*)=C1OCC(O)CO; 2Nal = N[C@@H](Cc1ccc2ccccc2c1)C(=O)O; Suc = O=C(CCC(=O)[*:2])[*:1]; NHC(CH2OH)3 = OCC(CO)(CO)N*

T1 sequence (P30680 whole entry): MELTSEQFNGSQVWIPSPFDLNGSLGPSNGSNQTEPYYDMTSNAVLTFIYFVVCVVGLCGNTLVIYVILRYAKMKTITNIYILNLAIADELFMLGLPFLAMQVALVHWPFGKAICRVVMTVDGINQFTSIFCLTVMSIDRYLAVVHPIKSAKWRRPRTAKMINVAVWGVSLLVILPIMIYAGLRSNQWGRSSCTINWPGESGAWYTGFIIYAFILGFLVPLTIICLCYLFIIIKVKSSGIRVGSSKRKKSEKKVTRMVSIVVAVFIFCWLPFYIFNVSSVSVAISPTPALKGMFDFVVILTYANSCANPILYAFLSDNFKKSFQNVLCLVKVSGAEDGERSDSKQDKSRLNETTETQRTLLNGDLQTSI

Take `CC(C)[C@@H]1NC(=O)[C@H](CCCCN)NC(=O)[C@@H](Cc2c[nH]c3ccccc23)NC(=O)[C@H](Cc2ccc(O)cc2)NC(=O)[C@@H](NC(=O)[C@@H](Cc2ccc3ccccc3c2)NC(=O)CCCOC2=C(O)C(=O)O[C@@H]2[C@@H](O)CO)CSSC[C@@H](C(=O)N[C@H](C(N)=O)[C@@H](C)O)NC1=O` [BIM-23118]: the “Cell growth (percent of control)” value in test [1] is given as 61.0% of control. Also, the “Inhibition of growth of AR42J cells (FIG. 1), in words” value in test [2] is on record as “the more effective of the two compounds”.
Consider `C[C@@H](O)[C@@H]1NC(=O)[C@H](CCCCN)NC(=O)[C@@H](Cc2c[nH]c3ccccc23)NC(=O)[C@H](Cc2ccc(O)cc2)NC(=O)[C@@H](NC(=O)[C@@H](Cc2ccccc2)NC(=O)CCC(=O)NC(CO)(CO)CO)CSSC[C@@H](C(=O)N[C@@H](Cc2ccc3ccccc3c2)C(N)=O)NC1=O` [BIM-23167, (HO-CH2)3 -C-NH-CO-(CH2)2 -CO-D-Phe-c[Cys-Tyr-D-Trp-Lys-Thr-Cys]-Nal-NH2] ({NHC(CH2OH)3-Suc}-[dF]CY[dW]KTC[2Nal]-NH2; disulfide 2-7), for which, in test [1], the “Cell growth (percent of control)” value was 60.2% of control. For the same compound, the IC50 (as a rule, the concentration that inhibits the measured activity by half) at somatostatin receptor was 90 pM. In addition, the “Inhibition of stimulated growth hormone release (percentile control)” value is given as 92.67 percentile control in test [3] (2 Hours), 79.54 percentile control in test [3] (4 Hours), 59.72 percentile control in test [3] (6 Hours) and 50.14 percentile control in test [3] (8 Hours).
For `C[C@@H](O)[C@@H]1NC(=O)[C@H](CCCCN)NC(=O)[C@@H](Cc2c[nH]c3ccccc23)NC(=O)[C@H](Cc2ccc(O)cc2)NC(=O)[C@@H](NC(=O)[C@@H](Cc2ccccc2)NC(=O)COC2=C(OCC(O)CO)C(=O)O[C@@H]2[C@@H](O)CO)CSSC[C@@H](C(=O)N[C@@H](Cc2ccc3ccccc3c2)C(N)=O)NC1=O` (stereo partly shown) [BIM-23181] (X1-[dF]CY[dW]KTC[2Nal]-NH2; disulfide 2-7), in test [1], the “Cell growth (percent of control)” value was 69.1% of control. Further, the “Inhibition of stimulated growth hormone release (percentile control)” value stood at 99.24 percentile control in test [3] (2 Hours), 77.07 percentile control in test [3] (4 Hours), 60.56 percentile control in test [3] (6 Hours) and 56.12 percentile control in test [3] (8 Hours).
As to `CSCC[C@H](NC(=O)[C@H](C)NC(=O)[C@@H]1CCCN1C(=O)[C@H](CC(N)=O)NC(=O)[C@H](CO)NC(=O)[C@H](CC(N)=O)NC(=O)[C@H](C)NC(=O)[C@@H](N)CO)C(=O)N[C@@H](C)C(=O)N1CCC[C@H]1C(=O)N[C@@H](CCCNC(=N)N)C(=O)N[C@@H](CCC(=O)O)C(=O)N[C@@H](CCCNC(=N)N)C(=O)N[C@@H](CCCCN)C(=O)N[C@@H](C)C(=O)NCC(=O)N[C@H]1CSSC[C@@H](C(=O)O)NC(=O)[C@H](CO)NC(=O)[C@H]([C@@H](C)O)NC(=O)[C@H](Cc2ccccc2)NC(=O)[C@H]([C@@H](C)O)NC(=O)[C@H](CCCCN)NC(=O)[C@H](Cc2c[nH]c3ccccc23)NC(=O)[C@H](Cc2ccccc2)NC(=O)[C@H](Cc2ccccc2)NC(=O)[C@H](CC(N)=O)NC(=O)[C@H](CCCCN)NC1=O` [SRIF-28, reference compound], in test [1], the “Cell growth (percent of control)” value is 98.0% of control.
On to “D-Nal-c[Cys-Tyr-D-Trp-Lys-Val-Cys]-Thr-NH2 [BIM-23014C, reference compound]”, for which the “Cell growth (percent of control)” value in test [1] is given as 74.1% of control. The “Inhibition of growth of AR42J cells (FIG. 1), in words” value in test [2] is “inhibit the growth of AR42J rat pancreas tumor cells in a concentration-dependent fashion”.
